From patent US20240366540A1, “MITOFUSIN INHIBITORS AND USES THEREOF” (Albert Einstein College of Medicine, priority 2021, published 2024)

Columns and labels:
[1] = tested on: mitochondrial biogenesis markers; test: Mitochondrial biogenesis markers by q-PCR; format: cell-based
Description: Analysis of mitochondrial biogenesis-related genes by q-PCR. Total RNA was extracted by using RNeasy Mini Kit (Qiagen) followed by cDNA synthesis using the SuperScript IV VILO Master Mix (Thermo Scientific), both performed according to the manufacturer's protocol. q-PCR was performed using the following primers: For the q-PCR reaction, Power SYBR Green master mix (Thermo Scientific) was used according to the manufacturer's instructions. […] Rpl39 was used as housekeeping gene and 2^−ΔΔCT method was applied to determine the relative mRNAs expression.

[2] = tested on: MEFs; test: RNA-seq gene expression; format: cell-based, mouse
Source text: RNA-seq. Sequencing results were demultiplexed and converted to FASTQ format using Illumina bcl2fastq software. The sequencing reads were adapter and quality trimmed with Trimmomatic and then aligned to the mouse genome (build mm10/GRCm38) using the splice-aware STAR aligner. The featureCounts program was utilized to generate counts for each gene based on how many aligned reads overlap its exons. These counts were then normalized and used to test for differential expression using negative binomial generalized linear models implemented by the DESeq2 R package.

[3] = tested on: MEFs; test: Metabolomics (TCA cycle carboxylic acids, NAD, NADH); format: cell-based, mouse; details: UPLC-MRM/MS
Description: Metabolomics. […] Cells were harvested using a cell scraper and centrifuged at 1200 rpm in 4° C. for 3 min. Each cell pellet sample was suspended into 250 to 700 μL of 80% aqueous methanol in an Eppendorf tube. The samples were vortex mixed for 15 s and sonicated in an ice-water bath for 5 min, followed by centrifugal clarification at 15,000 rpm and 5° C. in an Eppendorf […] centrifuge. The clear supernatants were collected. A standard stock solution of TCA cycle carboxylic acids, NAD and NADH was prepared in 80% methanol as S1. This standard solution S1 was serially diluted 1 to 4 (v/v) with the same solvent to make standard solutions S2 to S10. 20 μL of each standard solution and an aliquot of the clear supernatant from each cell was mixed with 20 μL of an internal standard solution containing 9 ^13C- or deuterium labeled analogues of the TCA cycle carboxylic acids (except isocitric acid), 20 μL of 200 mM 3-NPH solution and 20 μL of 150 mM of EDC solution. The mixtures were allowed to react at 30° C. for 30 min. After reaction, 120 μL of water was added to each solution. 10 μL of the resultant solutions was injected into a C18 UPLC column to quantitate the TCA cycle carboxylic acids by UPLC-MRM/MS with (-) ion detection, according to the procedure we described in a publication.

[4] = tested on: Calu-6 cells; test: Cell death (Annexin V) in Calu-6 cells; format: cell-based; details: 20 μM, indicated timepoints
Description: Calu-6 cells were treated with MFI8 (20 μM). Cell death was monitored at the indicated timepoints using Annexin V as a readout. Data represent mean (n=3).
Cell death assay. Cells (2×10^5 cells/well) were seeded in a 6-well plate and treated with the indicated drugs for 6 hours. Cells were dissociated using Accutase (Thermo Fisher; Cat. #00-4555-56) in order to avoid accidental exposure of phosphatidylserine on the outer plasma membrane. Cell death was evaluated with Dead Cell Apoptosis Kit with Annexin V Alexa Fluor™ 488 & Propidium Iodide (Thermo Fisher; Cat. #V13241) according to manufacturer's protocol. Data was acquired by BD LSRII flow cytometer system using BD FACSDiva software. Data was analyzed by FlowJo (BD).

[5] = tested on: cells; test: Cell viability assay (CellTiter-Glo); format: cell-based; details: 72 hours
Description: Cell viability assay. […] Cell viability was assayed after 72 hrs by addition of CellTiter-Glo reagent according to the manufacturer's protocol (Promega). Luminescence was measured using a […] microplate reader (TECAN). Viability assays were performed in at least triplicate and the data normalized to vehicle-treated control wells.

[6] = tested on: MOLM13 cells; test: Cell viability, leukemia cells; format: cell-based; details: MOLM13, 72 hr, Cell titer Glo
Description: (§1) Cell titer Glo was used to measure viability. Cells were treated with MFI8 for 72 hr (n=3, mean±SD).
(§2) Cell viability assay. Cells (5×10^3 cells/well) were seeded in a 96-well white plate and treated with serial dilutions of MASM7 or MFI8. Cell viability was assayed after 72 hrs by addition of CellTiter-Glo reagent according to the manufacturer's protocol (Promega). Luminescence was measured using a F200 PRO microplate reader (TECAN). Viability assays were performed in at least triplicate and the data normalized to vehicle-treated control wells. Dilutions of MASM7 or MFI8 were performed using a TECAN D300e Digital Dispenser from 10 mM stocks.

[7] = tested on: MV-411 cells; test: Cell viability, leukemia cells; format: cell-based; details: MV-411, 72 hr, Cell titer Glo
Description: as §1, §2

[8] = tested on: A375 cells; test: Cell viability, melanoma cells; format: cell-based; details: A375, 72 hr, Cell titer Glo
Description: as §1, §2

[9] = tested on: SKML-30 cells; test: Cell viability, melanoma cells; format: cell-based; details: SKML-30, 72 hr, Cell titer Glo
Description: as §1, §2

[10] = tested on: BXPC3 cells; test: Cell viability, pancreatic cancer cells; format: cell-based; details: BXPC3, 72 hr, Cell titer Glo
Description: as §1, §2

[11] = tested on: H508 cells; test: Cell viability, colon cancer cells; format: cell-based; details: H508, 72 hr, Cell titer Glo
Description: as §1, §2

[12] = tested on: HT29 cells; test: Cell viability, colon cancer cells; format: cell-based; details: HT29, 72 hr, Cell titer Glo
Description: as §1, §2

[13] = tested on: Calu-6 cells; test: Cell viability, lung cancer cells; format: cell-based; details: Calu-6, 72 hr, Cell titer Glo
Description: as §1, §2

[14] = tested on: H2405 cells; test: Cell viability, lung cancer cells; format: cell-based; details: H2405, 72 hr, Cell titer Glo
Description: as §1, §2

[15] = tested on: MEFs; test: DNA damage, yH2AX immunofluorescence in MEFs; format: cell-based, mouse; details: 6 h
Description: Immunofluorescent analysis and microscopy. […] After treatments, cells were washed with PBS and fixed with 4% PFA for 15 min. […] After incubation with primary antibodies, cells were washed with PBS and incubated with the appropriate mouse secondary antibody (ThermoFisher Scientific; A-11001) in the blocking solution. After PBS washes, coverslips were dipped in water and mounted on glass slides using Vectashield containing DAPI (Vector laboratories). […] Data were analyzed with ImageJ.

Cc1cccc(NC(C)c2cc(Cl)ccc2O)c1C (centres unmarked) [MFI8, 4-Chloro-2-(1-((2,3-dimethylphenyl)amino)ethyl)phenol]
gene expression levels of mitochondrial biogenesis markers [1]: no alteration | expression of genes involved in DNA damage response ([2]; MEFs): up-regulated several genes that are involved in DNA damage response | gene expression of subunits of the respiratory complexes ([2]; RNA-seq): reduced the gene expression of several nuclear-encoded subunits of the respiratory complexes | metabolites of the TCA cycle [3]: markedly reduced several metabolites such as malate, oxaloacetate, and α-ketoglutarate | apoptosis / cell death (Annexin V) [4]: induces apoptosis in Calu-6 cells | cellular viability [5]: neither MFI8 nor MASM7 decreased cellular viability | viability [6]: concentration responsively reduces viability | viability [7]: concentration responsively reduces viability | viability [8]: concentration responsively reduces viability | viability [9]: concentration responsively reduces viability | viability [10]: concentration responsively reduces viability | viability [11]: concentration responsively reduces viability | viability [12]: concentration responsively reduces viability | viability [13]: concentration responsively reduces viability | viability [14]: concentration responsively reduces viability | DNA damage (yH2AX foci) ([15]; MFN1/MFN2 DKO MEFs): not in MFN1/MFN2 DKO MEFs | DNA damage (yH2AX foci) ([15]; WT MEFs): increased yH2AX foci in WT MEFs
